In patent publication US20140072604A1, “Block Copolymer For Intraperitoneal Administration Containing Anti-Cancer Agent, Micelle Preparation Thereof, And Cancer Therapeutic Agent Comprising The Micelle Preparation As Active Ingredient” (priority 2009, published 2014):
Structures can show the parent of a compound that is named as a salt.

How the values were obtained:
Format in all cases: in vivo, BALB/c nude mouse
[1] = test system: human ovarian cancer cell line ES-2; assay: Life-prolonging effect in nude mouse model for peritoneal disseminated metastasis (ES-2), intraperitoneal administration; settings: once three days after tumor transplantation, observed until 80 days
Protocol: Therapeutic effects on peritoneal disseminated metastasis were tested by using a mouse model for peritoneal disseminated metastasis. Specifically, the mouse model for peritoneal disseminated metastasis was prepared by intraperitoneal injection of human ovarian cancer cell line ES-2 (1.0×10^6 cells) to an 8-week old BALB/c nude mouse.
In order to estimate advantageous life-prolonging effects of the present micelle preparation having encapsulated paclitaxel, the model mice were divided into three groups, i.e., 8 mice per group. […] In addition, the drug dosage was determined by converting a clinical dosage for intravenous route (paclitaxel 210 mg/m^2 and paclitaxel micelle preparation: 150 mg/m^2) to those for a mouse using an AUC comparison. […]
1 ml of saline (Control group); 1 ml of saline containing 66.7 mg/kg of irinotecan hydrochloride (66.7 mg/kg CPT-11 administered group); and 1 ml of 5% glucose solution containing the micelle preparation containing 30 mg/kg of SN-38 (30 mg/kg SN-38 micelle administered group) were intraperitoneally administered to the mouse of each group, respectively. […] In addition, the drug dosage was determined as the one-third of the maximum amount allowed for intravenous route administration for a mouse. […]

[2] = test system: human ovarian cancer cell line SHIN-3; assay: Life-prolonging effect in nude mouse model for peritoneal disseminated metastasis (SHIN-3), intraperitoneal administration
Protocol: In order to estimate an effect of intraperitoneal administration of the micelle preparation having encapsulated paclitaxel, a mouse model for peritoneal disseminated metastasis was prepared by intraperitoneal injection of human ovarian cancer cell line SHIN-3 (1.0×10^7 cells) to an 8-week old BALB/c nude mouse. Three groups were created as following: 1 ml of saline (Control group, 18 mice); 1 ml of saline containing […] of paclitaxel (100 mg/kg PTX administered group, 8 mice); and 1 ml of 5% glucose solution containing the micelle preparation containing 50 mg/ml of encapsulated paclitaxel (50 mg/kg PTX micelle administered group, 8 mice) were intraperitoneally administered to the mouse of each group, respectively. The amounts of the ingredients were of by 20 g mouse body weight. The administrations were carried out once after one week of the tumor transplantations. The mice were observed until 120 days after the cell transplantation. The survival rates were recorded and the survival curves was plotted in FIG. 3.

[3] = test system: human stomach cancer cell line MKN45-P; assay: Life-prolonging effect in nude mouse model for peritoneal disseminated metastasis (MKN45-P), intraperitoneal administration; settings: 50 mg/kg, once three days after tumor transplantation, observed until 60 days
Protocol: In order to estimate an effect of intraperitoneal administration of a micelle preparation having encapsulated paclitaxel, a mouse model for peritoneal disseminated metastasis was prepared by intraperitoneal injection of human stomach cancer cell line MKN45-P (1.0×10^6 cells) to an 8-week old BALB/c nude mouse. Three groups were created as following: 1 ml of saline (Control group, 8 mice); 1 ml of saline containing 50 mg/ml of paclitaxel (50 mg/kg PTX administered group, 8 mice); and 1 ml of 5% glucose solution containing the micelle preparation containing 25 mg/ml of encapsulated paclitaxel (25 mg/kg PTX micelle administered group, 8 mice) were intraperitoneally administered to the mouse of each group, respectively. The amounts of the ingredients were of by 25 g mouse body weight. The administrations were carried out once after three days of the tumor transplantation. The mice were observed until 60 days after the cell transplantation. The survival rates was recorded and the survival curves was plotted in FIG. 4.

## CC(=O)O[C@H]1C(=O)[C@@]2(C)[C@H]([C@H](OC(=O)c3ccccc3)[C@]3(O)C[C@H](OC(=O)[C@H](O)[C@@H](NC(=O)c4ccccc4)c4ccccc4)C(C)=C1C3(C)C)[C@]1(OC(C)=O)CO[C@@H]1C[C@@H]2O [PTX, paclitaxel]
[1]; 70 mg/kg, Control Day 17
  50% survival rate, day after transplantation: 44 days
[2]; 100 mg/kg PTX administered group, 8 mice, once
  toxic death: two cases of toxic death
[2]; 100 mg/kg, once one week after tumor transplantation, observed until 120 days
  50% survival rate, day after transplantation: 100 days
[3]
  50% survival rate, day after transplantation: 55 days

## CCc1c2c(nc3ccc(OC(=O)N4CCC(N5CCCCC5)CC4)cc13)-c1cc3c(c(=O)n1C2)COC(=O)[C@]3(O)CC [CPT-11, irinotecan hydrochloride]
[1]; 66.7 mg/kg, Control Day 21
  50% survival rate, day after transplantation: 56 days
